Data: patent publication US20240150293A1, “SPIROCYCLOHEXANE DERIVATIVES, PHARMACEUTICAL COMPOSITIONS CONTAINING THEM AND THEIR USES AS ANTI-APOPTOTIC INHIBITORS” (LES LABORATOIRES SERVIER, priority 2021, published 2024)

Target: Cy5-labelled Mcl1 (amino acids 171-321) C286S protein (UniProtKB Q07820) (Homo sapiens (Human), UniProt Q07820, C286S)
Test: Inhibition of Mcl-1 by the fluorescence quenching assay (Example A, Method B)
Type: binding
Settings: not given
From the text: Fluorescence quenching assay measures the change fluorescence intensity of C-terminally Cy5-labelled Mcl1 (amino acids 171-321) C286S protein (UniProtKB® primary accession number Q07820) having an amino acid sequence:
which is linked at the C-terminus to the amino acid X which corresponds to a cysteine labelled on the sulfur with sulpho-Cyanine5 from Lumiprobe GmbH catalogue number 13380, upon binding of a C-terminally labelled peptide derived from PUMA (UniProtKB® primary accession number Q9BXH1) having an amino acid sequence:
which is linked at the C-terminus to the amino acid X′, where X′ is cysteine labelled on the sulfur with TQ5WS from AAT Bioquest catalogue number 2079.
The addition of a compound which binds competitively to the same site as the peptide will result in an increase in the fluorescence intensity of the protein due to displacement of the fluorescence quencher.
An 11-point serial dilution of each compound was prepared in DMSO, the final buffer conditions were 10 mM 4-(2-hydroxyethyl)-1-piperazineethanesulfonic acid [HEPES], 150 mM NaCl, 0.05% Tween 20, pH 7.4 and 5% DMSO. The final protein concentration in the assay was 1 nM with the peptide present at 10, 20 or 400 nM. The experiments were incubated for 2 hours at room temperature before fluorescence intensity was measured on a Biotek SynergyNeo plate reader (Excitation 620 nm, emission 680 nm). The dose response curves were plotted with XL-Fit software using a 4-Parameter Logistic Model (Sigmoidal DoseResponse Model) and the inhibitory concentrations that gave a 50% increase in fluorescence intensity was determined (IC50). The Ki values were determined from the IC50 values according to Cer et al, Nucleic Acids Res, 2009, 37 (WebServer issue): W441-W445. Inhibition constants (Ki) are determined from complete binding inhibition curves (cKi) or from estimated from incomplete binding inhibition curves (eKi) in most cases due to low activity.

Sequence of Cy5-labelled Mcl1 (amino acids 171-321) C286S protein (Q07820 171-321 C286S): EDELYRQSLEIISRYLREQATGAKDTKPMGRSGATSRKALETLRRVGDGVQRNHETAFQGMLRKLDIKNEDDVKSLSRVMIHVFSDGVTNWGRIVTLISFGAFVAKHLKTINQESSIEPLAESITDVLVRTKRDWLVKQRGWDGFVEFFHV

Point of comparison: `Cc1ccc2[nH]ccc2c1OCCC[C@@H]1Cc2ccccc2[C@]12CC[C@@](Nc1cccc(Cl)c1)(C(=O)O)CC2` [Example 489, (1r,2′R,4R)-4-(3-chloroanilino)-2′-{3-[(5-methyl-1H-indol-4-yl)oxy]propyl}-2′,3′-dihydrospiro[cyclohexane-1,1′-indene]-4-carboxylic acid], Ki 76 nM. Against it:
- CC[C@H](COc1ccncc1)C[C@@H]1Cc2ccccc2[C@]12CC[C@@](Nc1cccc(Cl)c1)(C(=O)O)CC2 [Example 543, (1r,2′R,4R)-4-(3-chloroanilino)-2′-[(2S)-2-{[(pyridin-4-yl)oxy]methyl}butyl]-2′,3′-dihydrospiro[cyclohexane-1,1′-indene]-4-carboxylic acid] — 1.7-fold higher, 126 nM
- O=C(O)[C@]1(Nc2cccc(Cl)c2)CC[C@@]2(CC1)c1ccccc1CC2CC(COc1ccnc2c1CCCC2)C(F)F (single isomer, unassigned) [Example 513, (1r,4r)-4-(3-chloroanilino)-2′-(3,3-difluoro-2-{[(5,6,7,8-tetrahydroquinolin-4-yl)oxy]methyl}propyl)-2′,3′-dihydrospiro[cyclohexane-1,1′-indene]-4-carboxylic acid] — 2.7-fold lower, 27.9 nM
- CC(CC1Cc2ccccc2[C@]12CC[C@@](Nc1cccc(Cl)c1)(C(=O)O)CC2)C(C)Oc1ccnc2c1CCC2 (single isomer, unassigned) [Example 615, (1r,4r)-4-(3-chloroanilino)-2′-{3-[(6,7-dihydro-5H-cyclopenta[b]pyridin-4-yl)oxy]-2-methylbutyl}-2′,3′-dihydrospiro[cyclohexane-1,1′-indene]-4-carboxylic acid] — 3.2-fold higher, 241 nM
- CC1CCN(C)c2nccc(OC[C@H](C)C[C@H]3Cc4ccccc4[C@]34CC[C@@](Nc3cccc(Cl)c3)(C(=O)O)CC4)c21 (single isomer, unassigned) [Example 644] — 27-fold lower, 2.8 nM
- O=C(O)[C@]1(Nc2cccc(Cl)c2)CC[C@@]2(CC1)c1ccccc1CC2CC(CO)COc1ccnc2c1CCC2 (single isomer, unassigned) [Example 499, (1r,4r)-4-(3-chloroanilino)-2′-(2-{[(6,7-dihydro-5H-cyclopenta[b]pyridin-4-yl)oxy]methyl}-3-hydroxypropyl)-2′,3′-dihydrospiro[cyclohexane-1,1′-indene]-4-carboxylic acid] — within 1.5-fold, 74.1 nM
- CCc1cnccc1OC[C@H](C)C[C@H]1Cc2ccccc2[C@]12CC[C@@](Nc1cccc(Cl)c1)(C(=O)O)CC2 [Example 588, (1r,2′S,4S)-4-(3-chloroanilino)-2′-{(2R)-3-[(3-ethylpyridin-4-yl)oxy]-2-methylpropyl}-2′,3′-dihydrospiro[cyclohexane-1,1′-indene]-4-carboxylic acid] — 28-fold lower, 2.68 nM
- CC(CC1Cc2ccccc2[C@]12CC[C@@](Nc1cccc(Cl)c1)(C(=O)O)CC2)C(C)Oc1ccnc2c1CCC2 (single isomer, unassigned) [Example 617, (1r,4r)-4-(3-chloroanilino)-2′-{3-[(6,7-dihydro-5H-cyclopenta[b]pyridin-4-yl)oxy]-2-methylbutyl}-2′,3′-dihydrospiro[cyclohexane-1,1′-indene]-4-carboxylic acid] — within 1.5-fold, 93.5 nM
- C[C@@H](COc1ccnc2c1[C@H](C)CCC2)C[C@H]1Cc2cc3c(cc2[C@]12CC[C@@](Nc1cccc(Cl)c1)(C(=O)OCCCS(=O)(=O)O)CC2)OCO3 [Example 953, 3-({(1r,4S,6′S)-4-(3-chloroanilino)-6′-[(2R)-2-methyl-3-{[(5R)-5-methyl-5,6,7,8-tetrahydroquinolin-4-yl]oxy}propyl]-6′,7′-dihydro-2′H-spiro[cyclohexane-1,5′-indeno[5,6-d][1,3]dioxole]-4-carbonyl}oxy)propane-1-sulfonic acid] — within 1.5-fold, 55.6 nM
- O=C(O)[C@]1(Nc2cccc(Cl)c2)CC[C@@]2(CC1)c1ccccc1CC2CC(COc1ccnc2c1CCCC2)C(F)F (single isomer, unassigned) [Example 512, (1r,4r)-4-(3-chloroanilino)-2′-(3,3-difluoro-2-{[(5,6,7,8-tetrahydroquinolin-4-yl)oxy]methyl}propyl)-2′,3′-dihydrospiro[cyclohexane-1,1′-indene]-4-carboxylic acid] — 3.3-fold lower, 22.7 nM
- CC(C)(C)OC(=O)N1CCC(CC2=Cc3ccccc3[C@]23CC[C@@](Nc2cccc(Cl)c2)(C(=O)O)CC3)CC1 [Example 558, (1r,4r)-2′-{[1-(tert-butoxycarbonyl)piperidin-4-yl]methyl}-4-(3-chloroanilino)spiro[cyclohexane-1,1′-indene]-4-carboxylic acid] — 7.2-fold higher, 549 nM
- Cc1ccc2[nH]ccc2c1OCCC[C@H]1Cc2ccccc2[C@]12CC[C@@](Nc1cccc(Cl)c1)(C(=O)O)CC2 [Example 490, (1r,2′S,4S)-4-(3-chloroanilino)-2′-{3-[(5-methyl-1H-indol-4-yl)oxy]propyl}-2′,3′-dihydrospiro[cyclohexane-1,1′-indene]-4-carboxylic acid] — within 1.5-fold, 61.8 nM
- C[C@@H](COc1cccc2[nH]ccc12)CC1Cc2ccccc2[C@]12CC[C@@](Nc1cccc(Cl)c1)(C(=O)O)CC2 (stereo partly drawn) [Example 594, (1r,4R)-4-(3-chloroanilino)-2′-{(2R)-3-[(1H-indol-4-yl)oxy]-2-methylpropyl}-2′,3′-dihydrospiro[cyclohexane-1,1′-indene]-4-carboxylic acid] — 1.7-fold lower, 44.1 nM
- O=C(O)[C@]1(Nc2cccc(Cl)c2)CC[C@@]2(CC1)c1ccccc1CC2CC(COCCN1CCOCC1)COc1ccnc2c1CCC2 (mixture of isomers) [Example 496, (1r,4r)-4-(3-chloroanilino)-2′-(2-{[(6,7-dihydro-5H-cyclopenta[b]pyridin-4-yl)oxy]methyl}-3-[2-(morpholin-4-yl)ethoxy]propyl)-2′,3′-dihydrospiro[cyclohexane-1,1′-indene]-4-carboxylic acid] — 42-fold lower, 1.8 nM
- Cc1cc(OCCC[C@H]2Cc3ccccc3[C@]23CC[C@@](Nc2cccc(Cl)c2)(C(=O)O)CC3)c2cc[nH]c2c1 [Example 488, (1r,2′S,4S)-4-(3-chloroanilino)-2′-{3-[(6-methyl-1H-indol-4-yl)oxy]propyl}-2′,3′-dihydrospiro[cyclohexane-1,1′-indene]-4-carboxylic acid] — 2-fold higher, 152 nM

Same assay, conditions: @ 1 μM, read-out: Mcl-1 inhibition, % at a single concentration

Work on `COC(=O)[C@]1(Nc2cccc(Cl)c2)CC[C@@]2(CC1)c1cc3c(cc1C[C@@H]2C[C@@H](C)COc1ccnc2c1[C@H](C)CCC2)OCO3` [Example 839, methyl (1r,4S,6′S)-4-(3-chloroanilino)-6′-[(2R)-2-methyl-3-{[(5R)-5-methyl-5,6,7,8-tetrahydroquinolin-4-yl]oxy}propyl]-6′,7′-dihydro-2′H-spiro[cyclohexane-1,5′-indeno[5,6-d][1,3]dioxole]-4-carboxylate] yielded an inhibition at 1 µM of 11.1%.

Same assay, conditions: Ki determined from IC50

Point of comparison: `C[C@@H](COc1ccnc2ccsc12)CN1Cc2ccccc2[C@]12CC[C@@](Nc1cccc(Cl)c1)(C(=O)O)CC2` [Example 38, (1s,4S)-4-(3-chloroanilino)-2′-{(2R)-2-methyl-3-[(thieno[3,2-b]pyridin-7-yl)oxy]propyl}-2′,3′-dihydrospiro[cyclohexane-1,1′-isoindole]-4-carboxylic acid], Ki 14.4 nM. Against it:
- Cc1cccc(N[C@]2(C(=O)O)CC[C@@]3(CC2)C(Br)=Cc2ccccc23)c1 [Example 88, (1s,4s)-2′-bromo-4-(3-methylanilino)spiro[cyclohexane-1,1′-indene]-4-carboxylic acid] — 35-fold higher, 503 nM
- O=C(O)[C@]1(Nc2cccc(Cl)c2)CC[C@]2(CC1)C(CCOc1ccnc3ccsc13)=Cc1ccccc12 [Example 178, (1r,4r)-4-(3-chloroanilino)-2′-{2-[(thieno[3,2-b]pyridin-7-yl)oxy]ethyl}spiro[cyclohexane-1,1′-indene]-4-carboxylic acid] — 2.6-fold higher, 37.1 nM
- O=C(O)[C@]1(Nc2cccc(C(F)(F)F)c2)CC[C@]2(CC1)C(Br)=Cc1ccccc12 [Example 85, (1s,4s)-2′-bromo-4-[3-(trifluoromethyl)anilino]spiro[cyclohexane-1,1′-indene]-4-carboxylic acid] — 29-fold higher, 424 nM
- Cc1cccc2c1C=C(Br)[C@]21CC[C@](Nc2cccc(Cl)c2)(C(=O)O)CC1 [Example 141, (1s,4s)-2′-bromo-4-(3-chloroanilino)-4′-methylspiro[cyclohexane-1,1′-indene]-4-carboxylic acid] — 6.4-fold higher, 91.6 nM
- Cc1cc2c(cc1C)[C@]1(CC[C@@](Nc3cccc(Cl)c3)(C(=O)O)CC1)C(Br)=C2 [Example 140, (1s,4s)-2′-bromo-4-(3-chloroanilino)-5′,6′-dimethylspiro[cyclohexane-1,1′-indene]-4-carboxylic acid] — 4-fold higher, 57.4 nM
- N#Cc1cccc(N[C@]2(C(=O)O)CC[C@@]3(CC2)C(Br)=Cc2ccccc23)c1 [Example 82, (1s,4s)-2′-bromo-4-(3-cyanoanilino)spiro[cyclohexane-1,1′-indene]-4-carboxylic acid] — 30-fold higher, 437 nM
